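Dose response: 5 concentrations. Exposure: 48 h. Format: 96-well plates. Endpoint: linear interpolation; highest concentration if not reached. Here, GI50 denotes the concentration required for 50% inhibition of growth.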 The source made the active and inactive calls. No stated cut-off is given here; in the data, active = GI50 up to about 1.1 µM and inactive = higher.

The values below come from ChEMBL document CHEMBL1201862, “PubChem BioAssay data set” (2004).

Common to all, as to experiment: NCI tumour cell line growth inhibition, 48 h
The test system of experiment [1] is 786-0.
The subject of experiment [2] is ACHN.
For experiment [3], the system named is BT-549.
Experiment [4] has as its system CCRF-CEM.
Experiment [5] has as its system DU-145.
The subject of experiment [6] is HCT-15.
Experiment [7] concerns HOP-62.
The test system of experiment [8] is IGROV-1.
For experiment [9], the system named is LOX IMVI.
For experiment [10], the system named is MOLT-4.
For experiment [11], the system named is NCI-H23.
The subject of experiment [12] is NCI-H522.
Experiment [13] concerns PC-3.
Experiment [14] relates to SF-295.
Experiment [15] concerns SK-MEL-2.
Experiment [16] has as its system SK-MEL-5.
Experiment [17] relates to SN12C.
Experiment [18] has as its system T47D.
Experiment [19] relates to TK-10.
The subject of experiment [20] is KM12.

Turning to `CCOP(=O)(Nc1ccc2oc(=O)c3ccccc3c2c1)OCC`, the GI50 in [1] is 76.7 µM (inactive); in [2] it was 33.2 µM (inactive); in [3], 15.2 µM (inactive); in experiment [4], 51.3 µM (inactive); in experiment [5], 92.7 µM (inactive); in experiment [6], 79.8 µM. The GI50 in experiment [7] is 62.1 µM (inactive); in experiment [8], 48 µM (inactive); in experiment [9] it was 47.5 µM (inactive); in experiment [10], 54.8 µM (inactive); in [11], > 100 µM (inactive); in experiment [12], 68.9 µM (inactive). In addition, the GI50 in experiment [13] is 27.8 µM (inactive); in experiment [14], > 100 µM (inactive); in [15], 62.5 µM (inactive); in [16] it was 28.6 µM (inactive); in experiment [17], > 100 µM (inactive); in experiment [18], 35.3 µM (inactive). For the same compound, the GI50 in experiment [19] is 49.1 µM (inactive).
For the compound `COc1ccc(OC)c(C2CCc3cnc4nc(N)nc(N)c4c3C2)c1` (stereo not drawn), the GI50 in [1] was 66.7 µM (inactive); in experiment [2], > 100 µM (inactive); in experiment [3], > 100 µM (inactive); in experiment [4], > 100 µM (inactive); in [5], > 100 µM (inactive); in experiment [6], > 100 µM. Besides, the GI50 in experiment [7] was > 100 µM (inactive); in experiment [8], 56 µM (inactive); in experiment [20] it was > 100 µM (inactive); in [9], 62.1 µM (inactive); in experiment [10], > 100 µM (inactive); in experiment [11], 64.6 µM (inactive). Moreover, the GI50 was > 100 µM (inactive) in experiment [12]; > 100 µM (inactive) in [13]; 56.2 µM (inactive) in experiment [14]; > 100 µM (inactive) in experiment [15]; > 100 µM (inactive) in [16]; > 100 µM (inactive) in experiment [17]. Further, the GI50 in [18] and in [19] was > 100 µM (inactive) each time.
For `Cc1ncc([N+](=O)[O-])n1CCNC(=O)CCn1ccnc1[N+](=O)[O-]`, the GI50 in experiment [1] was > 100 µM (inactive); in experiment [2] it was > 100 µM (inactive); in [3], > 100 µM (inactive); in experiment [4], > 100 µM (inactive); in [5] it was > 100 µM (inactive); in experiment [6] it was > 100 µM. The GI50 in [7], in [8], in [20], in experiment [9], in experiment [10] and in experiment [11] was > 100 µM (inactive) in each case. Further, the GI50 in experiment [12], in experiment [13], in experiment [14], in experiment [15], in experiment [16] and in experiment [17] was > 100 µM (inactive) throughout. Moreover, the GI50 in [18] and in experiment [19] was > 100 µM (inactive) throughout.
As for `NC1=NCC(CN2CCCC2)O1` (stereo not drawn), the GI50 in experiment [1] is > 100 µM (inactive); in [2], > 100 µM (inactive); in experiment [3], > 100 µM (inactive); in experiment [4] it was > 100 µM (inactive); in experiment [5], > 100 µM (inactive); in [6], > 100 µM. For the same compound, the GI50 in experiment [7], in experiment [8], in experiment [20], in experiment [9], in [10] and in experiment [11] was > 100 µM (inactive) throughout. For the same compound, the GI50 in [12], in [13], in [14], in [15], in experiment [16] and in experiment [17] was > 100 µM (inactive) throughout. Moreover, the GI50 in experiment [18] and in experiment [19] was > 100 µM (inactive) throughout.
Consider `C/C=C/C=C/C1=NN(c2cccc(S(=O)(=O)O)c2)C2(C1)SCC(=O)N2c1nc2ccccc2s1` (stereo not drawn), for which the GI50 was 19.8 µM (inactive) in [1]; 76.7 µM (inactive) in experiment [2]; 35.3 µM (inactive) in experiment [3]; 24.2 µM (inactive) in [4]; 34.5 µM (inactive) in experiment [5]; 69.2 µM in experiment [6]. Also, the GI50 is 19.7 µM (inactive) in [8]; 54.6 µM (inactive) in [20]; 19.6 µM (inactive) in experiment [9]; 29.4 µM (inactive) in experiment [10]; 42.5 µM (inactive) in experiment [11]; 33.1 µM (inactive) in experiment [12]. Besides, the GI50 in [13] was 62.2 µM (inactive); in [15], 37.8 µM (inactive); in experiment [16] it was 85.5 µM (inactive); in experiment [17], 41.2 µM (inactive); in experiment [18], 24.6 µM (inactive); in experiment [19], 47.8 µM (inactive).
Consider `CCc1nc2ccc(/N=N/N(C)C)cc2[nH]1`, for which the GI50 was > 100 µM (inactive) in experiment [1]; > 100 µM (inactive) in [2]; > 100 µM (inactive) in experiment [3]; > 100 µM (inactive) in [4]; > 100 µM (inactive) in [5]; > 100 µM in experiment [6]. In addition, the GI50 in [7], in [8], in experiment [20], in experiment [10], in [11] and in experiment [12] was > 100 µM (inactive) throughout. In addition, the GI50 in [13], in [15], in experiment [16], in experiment [17], in experiment [18] and in [19] was > 100 µM (inactive) each time.
For `Cc1nn(C(=O)Cc2ccccc2)c2c1C(c1ccc(N(C)C)cc1)SC(=N)N2` (stereo not drawn), the GI50 was > 100 µM (inactive) in [1]; > 100 µM (inactive) in experiment [2]; 51.5 µM (inactive) in experiment [3]; > 100 µM (inactive) in experiment [4]; > 100 µM (inactive) in experiment [5]; > 100 µM in experiment [6]. Besides, the GI50 in [7] was 38.3 µM (inactive); in experiment [8] it was > 100 µM (inactive); in experiment [20], > 100 µM (inactive); in experiment [9], > 100 µM (inactive); in experiment [10] it was > 100 µM (inactive); in experiment [11] it was > 100 µM (inactive). Moreover, the GI50 in experiment [12] was > 100 µM (inactive); in experiment [13], > 100 µM (inactive); in [14], 48.8 µM (inactive); in experiment [16] it was > 100 µM (inactive); in experiment [17], > 100 µM (inactive); in experiment [18], > 100 µM (inactive). The GI50 in [19] is 76.6 µM (inactive).
`CCOc1cc(NC(C)=O)ccc1C(=O)NN1C(=O)/C(=C/c2ccco2)N=C1c1ccccc1`: the GI50 in experiment [1] is > 100 µM (inactive); in [2], > 100 µM (inactive); in experiment [3], > 100 µM (inactive); in experiment [4], > 100 µM (inactive); in experiment [5] it was > 100 µM (inactive); in experiment [6], > 100 µM. Moreover, the GI50 is > 100 µM (inactive) in experiment [7]; > 100 µM (inactive) in experiment [8]; > 100 µM (inactive) in experiment [20]; > 100 µM (inactive) in experiment [9]; 22.3 µM (inactive) in experiment [10]; > 100 µM (inactive) in experiment [11]. The GI50 in experiment [12] is 24.9 µM (inactive); in experiment [13], > 100 µM (inactive); in experiment [14] it was > 100 µM (inactive); in experiment [15], > 100 µM (inactive); in experiment [16], 54.6 µM (inactive); in experiment [17], > 100 µM (inactive). For the same compound, in experiment [18], the GI50 is > 100 µM (inactive).
On to `Cn1c(=O)c2sc3c4sc5c(=O)n(C)c6ccccc6c5c4sc3c2c2ccccc21`, for which the GI50 was 38.1 µM (inactive) in experiment [1]; 48.1 µM (inactive) in experiment [2]; > 100 µM (inactive) in experiment [3]; > 100 µM (inactive) in experiment [4]; > 100 µM (inactive) in experiment [5]; > 100 µM in experiment [6]. Besides, the GI50 in [7] was 46.5 µM (inactive); in [8], > 100 µM (inactive); in experiment [20], > 100 µM (inactive); in experiment [10], > 100 µM (inactive); in experiment [11] it was > 100 µM (inactive); in experiment [12], > 100 µM (inactive). Further, the GI50 in [13], in experiment [15], in experiment [16], in experiment [17], in [18] and in [19] was > 100 µM (inactive) in each case.
Regarding `COC(=O)c1ccc(NCc2c(O)ccc(O)c2Br)cc1Cl`, the GI50 is 18.4 µM (inactive) in experiment [1]; 15.6 µM (inactive) in [2]; 11.2 µM (inactive) in experiment [3]; 0.367 µM (active) in experiment [4]; 16.2 µM (inactive) in experiment [5]; 16.6 µM in experiment [6]. Besides, the GI50 in experiment [8] is 14.5 µM (inactive); in experiment [20], 15.3 µM (inactive); in experiment [9], 13 µM (inactive); in experiment [10], 1.36 µM (inactive); in experiment [11] it was 16.6 µM (inactive); in experiment [12] it was 0.329 µM (active). Besides, the GI50 in [13] was 13.8 µM (inactive); in [14] it was 18.9 µM (inactive); in [15] it was 19.1 µM (inactive); in experiment [16] it was 18.5 µM (inactive); in experiment [17], 12.6 µM (inactive); in experiment [18] it was 19.6 µM (inactive).
With `Cc1nc(C)c(N2CCN(S(N)(=O)=O)CC2)c(O)n1`, the GI50 in [1] was > 100 µM (inactive); in experiment [2] it was > 100 µM (inactive); in experiment [3], > 100 µM (inactive); in experiment [4], > 100 µM (inactive); in [5], > 100 µM (inactive); in experiment [6], > 100 µM. In addition, the GI50 in [7], in experiment [8], in experiment [20], in experiment [9], in experiment [10] and in experiment [11] was > 100 µM (inactive) throughout. Further, the GI50 in experiment [12], in experiment [13], in experiment [14], in experiment [16], in [17] and in [18] was > 100 µM (inactive) each time. Besides, in experiment [19], the GI50 is > 100 µM (inactive).
